From patent US20250170157A1, “METHODS AND COMPOSITIONS FOR THE TREATMENT OF HEPATIC ENCEPHALOPATHY” (LEXICON PHARMACEUTICALS, INC., priority 2023, published 2025)

Assays:
[1] = tested on: mice with STZ-induced diabetes; experiment: Effect of LX2761 on glycemic control and cecal pH in mice with STZ-induced diabetes; assay type: in vivo; conditions: adult male mice with well-established diabetes, single daily doses 1.5 or 3 mg/kg by oral gavage
Method: FIGS. 1A-1F present data showing the effect of LX2761 on glycemic control in mice with STZ-induced diabetes. […] Glucose excursions among groups were compared as glucose AUC0-120 minutes values. […] On day 49, the final study day, samples were obtained to measure FIG. 1C fasting blood glucose; FIG. 1D plasma tGLP-1; and FIG. 1E cecal glucose, reported as the total amount of glucose recovered.
This study evaluated the effect of orally administered LX2761 on glycemic control in preclinical models.
Mice and Rats. All studies were performed at Lexicon Pharmaceuticals, Inc., in strict accordance with the recommendations in the Guide for the Care and Use of Laboratory Animals of the National institutes of Health. The protocols for all studies were approved by the Lexicon Institutional Animal Care and Use Committee (OLAW Assurance Number A4152-01; AAALAC International Accreditation Number 001025). General methods for mouse and rat care have been described elsewhere. […] For all in vivo studies, mice and rats were fed HGD because glucose must be a major source of dietary calories if the effects of SGLT1 inhibition on glucose homeostasis are to be evaluated. […]
Glucose-Containing Meal Challenge. […] Vehicle or LX2761 was administered by oral gavage at 8:00 AM once daily for 4 consecutive days; body weight and food consumption were measured daily. […]

[2] = tested on: subjects with type 2 diabetes (T2DM); experiment: Phase 1 multiple ascending dose clinical study: safety and tolerability; assay type: in vivo, human
Method: (§1) A phase 1 multiple ascending dose (MAD) clinical study of LX2761 in otherwise healthy subjects with type 2 diabetes (T2DM) was conducted, following an earlier, single ascending dose study of the compound's safety and tolerability.
(§2) This study evaluated the safety and tolerability of orally administered LX2761 given qd (i.e., once daily) or bid (i.e., twice daily) for eight days, over a range of ascending multiple dose levels in subjects with T2DM. As secondary objectives, the study evaluated the PD and PK of LX2761. Of the 51 subjects enrolled in the study, 27 (52.9%) were male and 24 (47.1%) were female. Subject ages ranged from 41 to 65 years, with BMIs ranging from 20.1 to 39.8 kg/m^2.
(§3) Subjects taking LX2761 were grouped into five cohorts: Cohort A=LX2761 dosed 0.4 mg qd for 4 days followed by LX2761 dosed 0.6 mg qd for 4 days; Cohort A2=LX2761 dosed 0.2 mg bid for 8 days; Cohort B=LX2761 dosed 0.6 mg qd for 4 days followed by LX2761 dosed 0.8 mg qd for 4 days; Cohort C=LX2761 dosed 0.6 mg qd for 4 days followed by LX2761 dosed 1.0 mg qd for 4 days; Cohort C1=LX2761 dosed 0.4 mg bid for 8 days.
(§4) Reporting of TEAEs of diarrhea was not based on subject self-reporting. Given the mechanism of action of LX2761, osmotic diarrhea was expected to occur in all subjects receiving LX2761 based on either stool form or daily frequency. […] The study stopping rules defined gradation of diarrhea as follows: diarrhea of moderate intensity was defined as an increase of 4 to 5 stools/day over the normal pre-study count with moderate cramping that limits usual daily activity or may require simple therapeutic intervention; diarrhea of severe intensity was defined as an increase of 6 to 8 stools/day over the normal pre-study count with severe cramping or incontinence that prohibits usual daily activities or requires systemic drug therapy or other therapeutic intervention.

SGLT1 transporter = target: T1, SGLT1 transporter (Homo sapiens, UniProt P13866); experiment: Phase 1 multiple ascending dose clinical study: pharmacodynamics; assay type: in vivo
T1 construct: from tissue; host or cells: intestine of human subjects with T2DM (in vivo clinical study)
T1 sequence (P13866 1-664): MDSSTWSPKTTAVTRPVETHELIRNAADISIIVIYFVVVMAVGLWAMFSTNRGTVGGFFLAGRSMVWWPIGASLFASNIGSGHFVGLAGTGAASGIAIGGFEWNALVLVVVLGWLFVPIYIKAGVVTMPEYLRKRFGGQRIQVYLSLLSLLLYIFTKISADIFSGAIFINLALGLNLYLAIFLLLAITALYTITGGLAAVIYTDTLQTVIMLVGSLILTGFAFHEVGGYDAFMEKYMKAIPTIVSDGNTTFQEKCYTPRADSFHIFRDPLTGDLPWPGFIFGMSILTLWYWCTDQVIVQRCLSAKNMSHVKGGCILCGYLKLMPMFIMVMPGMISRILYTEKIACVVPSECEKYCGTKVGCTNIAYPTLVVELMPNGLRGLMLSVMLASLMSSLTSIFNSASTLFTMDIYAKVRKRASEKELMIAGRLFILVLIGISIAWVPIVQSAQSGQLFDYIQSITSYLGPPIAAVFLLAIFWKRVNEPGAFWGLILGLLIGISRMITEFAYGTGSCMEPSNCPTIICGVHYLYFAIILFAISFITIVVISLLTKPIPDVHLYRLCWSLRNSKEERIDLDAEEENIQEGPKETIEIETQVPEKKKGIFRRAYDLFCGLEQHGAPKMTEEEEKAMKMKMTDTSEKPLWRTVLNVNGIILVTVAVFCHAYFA
Method: A phase 1 multiple ascending dose (MAD) clinical study of LX2761 in otherwise healthy subjects with type 2 diabetes (T2DM) was conducted, following an earlier, single ascending dose study of the compound's safety and tolerability. This study evaluated the safety and tolerability of orally administered LX2761 given qd (i.e., once daily) or bid (i.e., twice daily) for eight days, over a range of ascending multiple dose levels in subjects with T2DM. As secondary objectives, the study evaluated the PD and PK of LX2761. […] Subjects taking LX2761 were grouped into five cohorts: Cohort A=LX2761 dosed 0.4 mg qd for 4 days followed by LX2761 dosed 0.6 mg qd for 4 days; Cohort A2=LX2761 dosed 0.2 mg bid for 8 days; Cohort B=LX2761 dosed 0.6 mg qd for 4 days followed by LX2761 dosed 0.8 mg qd for 4 days; Cohort C=LX2761 dosed 0.6 mg qd for 4 days followed by LX2761 dosed 1.0 mg qd for 4 days; Cohort C1=LX2761 dosed 0.4 mg bid for 8 days.

[3] = Phase 1 multiple ascending dose clinical study: pharmacokinetics; assay type: in vivo, human
Method: as §1, §2, §3

[4] = tested on: subjects with type 2 diabetes (T2DM); experiment: Phase 1 multiple ascending dose clinical study: bowel movement frequency and Bristol Stool Form (BSF) Scale; assay type: in vivo, human
Method: FIG. 2 provides a table with baseline Bristol Stool Form (BSF) Scale data for subjects taking placebo or LX2761 in a multiple ascending dose study.
as §1, §2, §3, §4

[5] = rodents and humans; cited from earlier work
[6] = T2DM subjects, oral qd or bid for eight days

SMILES: CS[C@H]1O[C@@H](c2ccc(C)c(Cc3ccc(CCCC(=O)NC(C)(C)C(=O)NCCN(C)C)cc3)c2)[C@H](O)[C@@H](O)[C@@H]1O [LX2761, N-(1-((2-(dimethylamino)ethyl)-amino)-2-methyl-1-oxopropan-2-yl)-4-(4-(2-methyl-5-((2S,3R,4R,5S,6R)-3,4,5-trihydroxy-6-(methylthio)tetrahydro-2H-pyran-2-yl)benzyl)phenyl)butanamide]
- glycemic control ([1]; FIG. 1): improved glycemic control
- cecal pH ([1]; FIG. 1F): reduced cecal pH
- changes in clinical laboratory evaluations, vital signs, physical examination findings, or ECG parameters [2, 6]: No clinically significant changes
- intensity of reported TEAEs ([2]; all reported TEAEs): mild or moderate
- severe cramping or other adverse effects associated with existing HE agents such as lactulose ([2]; human clinical trial, low doses): generally not attended by severe cramping or other adverse effects
- severe TEAEs, SAEs, deaths, or discontinuations due to TEAEs ([2]; human, in vivo): No severe TEAEs, SAEs (serious adverse events), deaths, or discontinuations due to TEAEs occurred
- most frequently reported TEAEs ([2]; mainly nausea, vomiting, and abdominal pain): gastrointestinal (GI) events
- number of TEAEs assessed as moderate in intensity ([2]; of 25 TEAEs, reported by 6 subjects treated with LX2761): 9 TEAEs
- peptide YY (PYY) after dosing (SGLT1 transporter; [6]): increases
- total glucagon-like peptide 1 (GLP-1) after dosing (SGLT1 transporter; [6]): increases
- least squares (LS) mean UGE0-24 versus Baseline (SGLT1 transporter; all LX2761 cohorts, at some time points): decreased from Baseline
- difference from placebo in change from Baseline in postprandial glucose (PPG) concentration AUC0-3 (SGLT1 transporter; any LX2761 cohort): No statistically significant differences from placebo
- difference from placebo in change from Baseline in urinary glucose excretion from 0 to 24 hours (UGE0-24) (SGLT1 transporter; any LX2761 cohort): No statistically significant differences from placebo
- PPG concentration AUC0-3 versus Baseline (SGLT1 transporter; each LX2761 cohort except Cohort A2, at most assessment time points): reduced from Baseline
- concentrations after the first dose (exposure) ([3]; after the first dose): mostly BLQ
- increase in exposure (AUC and Cmax) ([3]; ascending dose levels, moderate to high variability): generally dose-related
- absorption ([3]; oral solution): rapid absorption
- subjects with BMs graded as BSF Scale Type 6 or 7 ([4]; all LX2761 cohorts but Cohort B, on at least one day through Day 8): ≥ 50%
- increase in mean stool frequency per day from Baseline ([4]; all LX2761 cohorts, on at least one day through Day 8): > 0.5 BM
- frequency of subjects with 2 or 3 BMs graded as BSF Scale Type 6 or 7 on a single day, versus placebo-treated subjects ([4]; all LX2761 cohorts, through Day 8): higher
- change in BMs meeting study criteria of moderate or severe diarrhea ([4]; human, in vivo): No change in BMs meeting these criteria of moderate or severe diarrhea was reported
- systemic exposure [5]: very low systemic exposure
